The values that follow come from ChEMBL document CHEMBL1139051, “Human ACAT inhibitory effects of shikonin derivatives from Lithospermum erythrorhizon” (Bioorg Med Chem Lett, 2007).

The first experiment has as its target T1, Sterol O-acyltransferase 1 (Homo sapiens, UniProt P35610).
T1 sequence (P35610 whole entry): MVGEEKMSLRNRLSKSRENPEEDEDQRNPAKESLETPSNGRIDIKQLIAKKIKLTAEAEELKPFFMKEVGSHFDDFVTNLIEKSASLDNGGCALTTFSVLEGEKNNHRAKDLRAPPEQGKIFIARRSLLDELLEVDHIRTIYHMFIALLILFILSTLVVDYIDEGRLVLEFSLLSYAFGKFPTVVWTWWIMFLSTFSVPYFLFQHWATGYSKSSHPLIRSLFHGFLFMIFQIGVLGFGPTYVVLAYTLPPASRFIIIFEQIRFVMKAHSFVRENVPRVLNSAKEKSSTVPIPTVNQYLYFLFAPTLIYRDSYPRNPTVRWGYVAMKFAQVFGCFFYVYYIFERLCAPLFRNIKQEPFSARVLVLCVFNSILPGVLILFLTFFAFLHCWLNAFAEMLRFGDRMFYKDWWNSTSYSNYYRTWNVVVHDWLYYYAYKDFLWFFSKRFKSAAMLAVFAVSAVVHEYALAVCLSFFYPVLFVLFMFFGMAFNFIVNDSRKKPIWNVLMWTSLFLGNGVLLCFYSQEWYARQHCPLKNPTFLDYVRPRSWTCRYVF
Nature of the experiment: Inhibition of human ACAT1 expressed in AC29 cells by cell-based fluorescent assay system.
Conditions: not given
Compound `CC(C)=CC[C@@H](OC(=O)CC(C)C)C1=CC(=O)c2c(O)ccc(O)c2C1=O` displayed a half-maximal inhibitory concentration (IC50) of 0.6 µM.

Another experiment addresses T2, Sterol O-acyltransferase 2 (Homo sapiens, UniProt O75908).
T2 sequence (O75908 whole entry): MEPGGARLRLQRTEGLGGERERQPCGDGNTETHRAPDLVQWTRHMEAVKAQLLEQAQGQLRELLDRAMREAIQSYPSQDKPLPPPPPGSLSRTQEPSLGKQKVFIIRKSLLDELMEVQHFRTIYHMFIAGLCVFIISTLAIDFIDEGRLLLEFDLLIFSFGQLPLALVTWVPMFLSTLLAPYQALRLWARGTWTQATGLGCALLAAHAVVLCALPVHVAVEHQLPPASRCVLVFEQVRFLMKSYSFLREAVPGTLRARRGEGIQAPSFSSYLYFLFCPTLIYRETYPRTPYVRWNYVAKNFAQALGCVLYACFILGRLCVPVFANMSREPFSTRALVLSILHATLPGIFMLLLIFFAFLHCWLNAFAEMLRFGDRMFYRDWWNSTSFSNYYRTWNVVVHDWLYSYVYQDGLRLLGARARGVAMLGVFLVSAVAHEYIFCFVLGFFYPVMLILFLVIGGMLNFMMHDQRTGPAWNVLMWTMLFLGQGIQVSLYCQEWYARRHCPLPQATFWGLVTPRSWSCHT
Nature of the experiment: Inhibition of human ACAT2 expressed in Hi5 cells.
Conditions: not given
Set-up: species or system BTI-TN-5B1-4.
`CC(C)=CC[C@@H](OC(=O)C(C)C)C1=CC(=O)c2c(O)ccc(O)c2C1=O` [ISOBUTYLSHIKONIN]: the concentration for half-maximal inhibition (IC50) worked out at 57.5 µM.
Same read-out and setting: with `CCCCC(=O)O[C@H](CC=C(C)C)C1=CC(=O)c2c(O)ccc(O)c2C1=O` the figure was 84.5 µM.
Take `CC(=O)O[C@H](CC=C(C)C)C1=CC(=O)c2c(O)ccc(O)c2C1=O` [ACETYLSHIKONIN]: the IC50 turned out to be 112 µM.
`CCC(=O)O[C@H](CC=C(C)C)C1=CC(=O)c2c(O)ccc(O)c2C1=O` registered an IC50 of 28.7 µM.
Regarding `CC(C)=CC[C@@H](OC(=O)c1ccccc1)C1=CC(=O)c2c(O)ccc(O)c2C1=O`, the IC50 was 56.2 µM.
Compound `CCCC(=O)O[C@H](CC=C(C)C)C1=CC(=O)c2c(O)ccc(O)c2C1=O` came in with an IC50 of 49.6 µM.
Still for that read-out and setting: with `CC(C)=CC[C@@H](O)C1=CC(=O)c2c(O)ccc(O)c2C1=O` [SHIKONIN] the figure was 138 µM.
Same read-out and setting: the value for `CC(C)=CC[C@@H](OC(=O)CC(C)(C)O)C1=CC(=O)c2c(O)ccc(O)c2C1=O` [BETA-HYDROXYISOVALERYLSHIKONIN] was 170 µM; that for `C=CCCC(=O)O[C@H](CC=C(C)C)C1=CC(=O)c2c(O)ccc(O)c2C1=O` was 71.4 µM.

A further experiment deals with T1, Sterol O-acyltransferase 1. Nature of the experiment: Inhibition of human ACAT1 expressed in Hi5 cells. Set-up: species or system BTI-TN-5B1-4.
Conditions: not given
The compound `CC(C)=CC[C@@H](OC(=O)CC(C)C)C1=CC(=O)c2c(O)ccc(O)c2C1=O` yielded an IC50 of 13.8 µM.

The target in a further experiment is T3, Sterol O-acyltransferase 1 (Homo sapiens) (UniProt P35610).
T3 sequence (whole entry): T1 sequence (P35610 whole entry)
The experiment is described as follows: Inhibition of human ACAT1 expressed in Hi5 cells at 120 uM. The conditions noted are these: BTI-TN-5B1-4.
Turning to `CC(C)=CC[C@@H](OC(=O)C(C)C)C1=CC(=O)c2c(O)ccc(O)c2C1=O` [ISOBUTYLSHIKONIN], the inhibition amounted to 32%.
